Source: US20260055150A1, “GRAIL-1 PEPTIDE PRODUCTS AND METHODS” (REGENTS OF THE UNIVERSITY OF MICHIGAN, priority 2022, published 2026)
Entries after “also recorded” stand apart in the source; their conditions may differ. Where a SMILES comes first, the peptide text is derived from it. Where no end group is shown, it is not given here.

What was measured:
CpD cells = test: Clonogenic survival of mutant p53 driven CpD cells; conditions: for cytotoxic effect on either cell type: CpA and CpD cells
Procedure: The effects of different siRNAs (e.g., GRAIL Iso1-1, GRAIL Iso1-2, TP53) on clonogenic survival of different BE (CpA, CpD) and EAC (Flo1, OE19, and OE33) cell lines were determined by normalizing the survival fraction of control siRNA-treated group as 1.
For this purpose, two BE cell lines were used, CpA (with wild type p53) and CpD (carrying mutant p53). […] In brief, 3000 cells in 100 μl of complete medium were plated per well in a 96-well plate 24 h prior to peptide treatments. Cells were then either treated with vehicle (dH2O) or serial dilutions of peptides. Two days following treatments MTT labelling reagent was added, and cells were allowed to form formazan crystals for 2 h. Following, 100 μl of solubilizing agent (10% SDS in 0.01M HCl) was added per well, and plates were incubated at 37° C. overnight. The optical density (OD) of the solubilized formazan was spectrophotometrically quantified using a plate reader at 570 nm with a reference at 650 nm. Data represent the mean (±standard error, SE) performed in quadruplicate, and percent cell viabilities are plotted in semi-logarithmic scale relative to water treated control.

[1] = system: EAC cells (Flo1, OE19, and OE33); test: Cell viability (MTT) of EAC cell lines; assay type: cell-based
DNAJA1 = test: Peptide pull down assay with recombinant DNAJA1; assay type: binding; conditions: NHS activated Sepharose beads, Western blot
Procedure: Briefly, 1 mg of peptide was dissolved in 1 ml of coupling buffer (0.2 M NaHCO3, 0.5 M NaCl, pH 8.3). Peptides were conjugated to NHS-activated resin by incubating 100 μL NHS bead slurry with 200 μL peptide solution for 2 hours at room temperature (RT). Unbound sites were blocked with quenching buffer (0.5 M ethanolamine, 500 mM NaCl). Resin peptide conjugates were washed once with low pH (0.1 M acetate, 0.5 M NaCl, pH 5) and high pH buffer (0.1 M Tris HCl, pH 8.0) and equilibrated with lysis buffer 50 mM HEPES, 150 mM NaCl, 0.2% NP-40, protease inhibitor cocktail, pH 7.5. Purified HSP40 protein was procured from […] (cat #). Purified protein was diluted in lysis buffer. Approximately 40 nM protein was incubated with peptide coupled to NHS beads and incubated for 2 hours at RT. Unbound proteins were removed by centrifugation and beads were washed with washing buffer (50 mM HEPES, 300 mM NaCl, 0.2% NP-40, pH 7.5). Bound proteins were obtained by boiling beads with 1× Laemmli buffer. […] To confirm, thermal stability assays (TSA) were performed. TSA was carried out using QuantStudio™ 7 Flex Real-Time PCR System. […] The plates were covered with optical foil during the reaction in the thermal cycler. […] The Instrument was programmed in the melt curve mode with ROX reagent detection and Fast speed run. The reporter was selected as Rox and none for quencher. Each melt curve was programmed as follows: 25° C. for 15 sec, followed by increase in temperature at the speed of 0.03° C./s up to 95° C. and finally 95° C. for 15 sec. The raw data was exported to Protein Thermal Shift™ Software (Applied Biosystems) for analysis. Melting temperature was calculated using the melt curve. […] To further test functionality, an in vitro ATPase activity assay was performed using purified Hsp40 and Hsp70 proteins. […] Pep 1 was redesignated “Pep J”.

[2] = system: chaperone activity (Fluc-DM); test: Fluc-DM luciferase reporter of cellular chaperone activity; assay type: cell-based; conditions: 20 μM peptide, overnight
Procedure: As Frag J/J^m overexpression locks DNAJA1-Hsp70 complex, whether such interactions inhibit chaperone activity was tested. […] To understand the in vivo effects of the Frag J or different peptides in multiple cell lines including BE/EAC and p53 isogenic lines, cells were first transfected/co-transfected with Fluc-DM±Frag J constructs. Twenty-four hours post-transfection, cells were either subjected to luciferase assay or for peptide treatment studies, cells were treated with 20 μM concentrations of different peptides. After overnight incubation, cell lysates were prepared using lysis buffer provided in the luciferase assay kit in Promega luciferase assay system (cat. E1910) followed by standardized protocol as provided by the manufacturer. […] Such observation was confirmed by an in vitro chaperone activity assay using recombinant purified Hsp40-Hsp70 complex (FIG. 6D). In Fluc-DM study, loss of Fluc-DM levels following Frag J/J^m overexpression (FIG. 6E) was noted as shown using immunoblotting. Such effects were independent of p53 mutation status.

mutant p53-R175H = test: Immunoblotting of mutant p53 steady state levels in CpD cells; assay type: cell-based; conditions: CpD cells transfected with DDK-tagged p53R175H; peptides 20 mM for 6 h
Procedure: CpD cells overexpressing mutant p53 were transfected with DDK-tagged p53R175H mutant. Cells were then treated with indicated peptides ([…] for 6 h).
Consequently, the effect of all thirteen peptides on mutant p53 steady state levels was tested.

mutant p53 and EGFR = test: Immunoblotting of mutant p53 and EGFR levels in BE/EAC cells; assay type: cell-based
mutant p53 = system: mutant p53
Procedure: The effect of Pep J and simvastatin treatment either alone or in combination on wild type and mutant p53 was tested in BE/EAC cells present in ten established PDOs grown in vitro. Scrambled Pep J was used as a negative control. […] Different concentrations of Pep J (10-200 μM) and simvastatin (50-1000 nM) were tested as well as different treatment time periods (24-96 hours).
Organoid lysates were prepared for immunoblotting similar to FIG. 13G.

[3] = system: patient-derived organoids (PDOs); test: Growth and survival of patient derived organoids in vitro; assay type: cell-based, human
[4] = system: OE33, OE 19 and Flo1 esophageal adenocarcinoma (EAC) cells; test: Radiosensitization clonogenic assay of EAC cells; assay type: cell-based; conditions: 20 μM for 24 hours, then 0-8 Gy
Procedure: OE33, OE 19 and Flo1 esophageal adenocarcinoma (EAC) cells were plated and after overnight incubation treated with 20 μM of Pep J for an additional 24 hours. Following, cells were irradiated with different doses (0, 2, 4, 6, 8 Gy) of radiation. Cells were then incubated for 24 hours prior to plating at a clonal density to perform clonogenic assays.

GRKKRRQRRRPQLGIEVDVEDG [Pep 12]
cytotoxic effect on either cell type (CpD cells): least cytotoxic effect; also recorded: list effects

CC[C@H](C)[C@H](NC(=O)[C@H](CC(=O)O)NC(=O)[C@H](CS)NC(=O)[C@H](CCCCN)NC(=O)[C@H](CS)NC(=O)[C@H](CCSC)NC(=O)[C@@H]1CCCN1C(=O)[C@H](CCC(N)=O)NC(=O)[C@@H]1CCCN1C(=O)[C@H](CCCNC(=N)N)NC(=O)[C@H](CCCNC(=N)N)NC(=O)[C@H](CCCNC(=N)N)NC(=O)[C@H](CCC(N)=O)NC(=O)[C@H](CCCNC(=N)N)NC(=O)[C@H](CCCNC(=N)N)NC(=O)[C@H](CCCCN)NC(=O)[C@H](CCCCN)NC(=O)[C@H](CCCNC(=N)N)NC(=O)CN)C(=O)N[C@@H](CC(C)C)C(=O)N[C@@H](CCCCN)C(=O)N[C@@H](C)C(=O)O [Pep 1] (H-GRKKRRQRRRPQPMCKCDILKA-OH; N-terminus and C-terminus assumed)
differential activity in reducing clonogenic survival of CpD cells (CpD cells; CpD versus CpA): better differential activity
effect on EAC cell lines [1]: relatively more resistant
interaction with purified DNAJA1 in peptide pull down (DNAJA1): showed interactions
inhibition of chaperone activity (Fluc-DM) [2]: inhibition of chaperone activity; also recorded: capable of inhibiting chaperone activity
mutant p53-R175H protein levels (mutant p53-R175H): highly effective; also recorded: decrease in mutant p53 levels
impact on p53 and EGFR levels in wild type p53 cells (mutant p53 and EGFR; CpA cells): no major impact
EGFR levels (mutant p53 and EGFR; CpD and OE33 cells): reduces
mutant p53 levels (mutant p53 and EGFR; CpD and OE33 cells): reduces
mutant p53 (nuclear) levels by immunofluorescence (mutant p53; FFPE fixed and sectioned organoids, 72 h, listed as Pep J): significant reduction
reduction in mutant p53 levels (mutant p53; immunoblotting of whole PDO lysis, 72 hours of treatment): 50%
misfolded mutant p53 levels in PDOs (mutant p53; within 24 h post treatment): loss of misfolded mutant p53
killing of PDOs ([3]; 7 days treatment in vitro): killed PDOs
size of organoid growth ([3]; after 72 h of treatment): No major effect
radiosensitization [4]: radiosensitized

LGIEVDVEDG [Pep 29, TAT-less Pep 12; Frag J amino acids 11-20]
interaction with purified DNAJA1 in peptide pull down (DNAJA1): no interaction

PMCKVPPWRQ [Pep 27, TAT-less Pep 5]
interaction with purified DNAJA1 in peptide pull down (DNAJA1): bound effectively

N=C(N)NCCC[C@H](NC(=O)CN)C(=O)N[C@@H](CCCCN)C(=O)N[C@@H](CCCCN)C(=O)N[C@@H](CCCNC(=N)N)C(=O)N[C@@H](CCCNC(=N)N)C(=O)N[C@@H](CCC(N)=O)C(=O)N[C@@H](CCCNC(=N)N)C(=O)N[C@@H](CCCNC(=N)N)C(=O)N[C@@H](CCCNC(=N)N)C(=O)N[C@@H](CCCNC(=N)N)C(=O)N1CCC[C@H]1C(=O)N[C@@H](CCC(N)=O)C(=O)O [Pep 13, GRKKRRQRRRRPQ]
cytotoxic effect on either cell type (CpD cells): least cytotoxic effect

GRKKRRQRRRPQCKVPPWRQ [Pep 8]
mutant p53-R175H protein levels (mutant p53-R175H): decrease in mutant p53 levels

GRKKRRQRRRPQPMCKATPWRE [Pep 4]
mutant p53-R175H protein levels (mutant p53-R175H): decrease in mutant p53 levels
